Patent US20110280913A1, “Methods and Compositions for Delivering Therapeutic Agents in the Treatment of B-Cell Related Disorders” (THE OHIO STATE UNIVERSITY, priority 2008, published 2011)

Assays:
[1] = tested on: CLL cells; test: Apoptosis of CLL cells with lenalidomide alone; format: cell-based, human; conditions: 0.5 μM lenalidomide, 48 or 72 hours
Procedure: CLL B cells were isolated by Ficoll centrifugation using Rosette-Sep reagent (StemCell Technologies, Vancouver, BC) according to the manufacturer's instructions. CLL cells were incubated in RPMI 1640 medium supplemented with 10% heat-inactivated human serum (Valley Biomedical, Winchester, Va.), 2 mM L-glutamine (Invitrogen, Carlsbad, Calif.), and 100 U/mL penicillin/100 μg/mL streptomycin (Sigma-Aldrich, St Louis, Mo.) at 37° C. in 5% CO2.
In addition, samples with no treatment or crosslinker alone were collected at matched time points. […]
Cytotoxicity results were expressed as percentage of total positive cells over untreated control [% positive cells=(% annexin^+ and/or PI^+ cells of treatment group)−(% annexin^+ and/or PI^+ cells of untreated control)].

[2] = tested on: CD23; test: Immunophenotyping (flow cytometry) of CD23 on CLL cells; format: cell-based, human; conditions: 0.5 μM, 48 h, vs vehicle, n=6, P=0.001
Procedure: (§1) Immunophenotyping was performed to determine the percentage and mean fluorescence intensity of CD20, CD19, CD5, CD23, CD38, CD3, and CD52 on CLL cells relative to a specific isotype control. Cells (10^6) were washed in PBS, stained with fluorochrome-labeled antibodies at 4° C., then rinsed in PBS and analyzed by flow cytometry (EPICS-XL; Beckman Coulter, Fullerton, Calif.). A total of 10,000 events were collected and analyzed using Windows Multiple Document Interface for Flow Cytometry (WinMDI). CD20, CD19, CD3, CD5, CD23, and CD38 antibodies were obtained from BD Biosciences (San Jose, Calif.), and CD52 antibody was obtained from Serotec (Raleigh, N.C.).

[3] = tested on: CD38; test: Immunophenotyping (flow cytometry) of CD38 on CLL cells; format: cell-based, human; conditions: 0.5 μM, 48 h, vs vehicle, n=6, P<0.05
Procedure: as §1

[4] = tested on: CD5; test: Immunophenotyping (flow cytometry) of CD5 on CLL cells; format: cell-based, human; conditions: 0.5 μM, vs vehicle
Procedure: as §1

[5] = tested on: CD20 mRNA; test: Real-time RT-PCR of CD20 mRNA in CLL cells; format: cell-based, human; conditions: 24 and 48 hours, compared with vehicle control
Procedure: RNA was extracted with TRIzol reagent (Invitrogen) according to the manufacturer's directions and converted to cDNA with the SuperScript First-Strand Synthesis System (Invitrogen). Real-time polymerase chain reaction was performed using custom-designed primers for CD20 (ID: Hs00544819_m1; Applied Biosystems, Foster City, Calif.) and an ABI Prism 7700 sequence detection system (Applied Biosystems). The expression of CD20 relative to an internal control gene was calculated by plotting the Ct (cycle number), and the average relative expression for each group was determined using the comparative method (2^−Ct).^24
The inventors herein then determined whether the mechanism by which lenalidomide down-regulates CD20 antigen was via decreased transcription. CD20 mRNA expression level was assessed by real-time reverse-transcribed polymerase chain reaction (RT-PCR) in lenalidomide- and vehicle-treated CLL cells at 24 and 48 hours.

[6] = tested on: CD20; test: Laser-scanning confocal microscopy of CD20 internalization; format: cell-based, human; conditions: lenalidomide 48 h at 37° C.
Procedure: Binding and internalization of anti-CD20 in CLL cells were examined by laser scanning confocal microscopy. CLL cells were incubated with lenalidomide for 48 hours at 37° C. and then collected and washed twice with PBS followed by fixation with 2% paraformaldehyde. Cells were then attached on a slide glass using Cytospin (Thermo Electron, Waltham, Mass.) and permeablilized with cold acetone for 5 minutes. Before cell membrane and nucleus staining, cells were preincubated with 1% bovine serum albumin in PBS for 1 hour at room temperature to reduce nonspecific binding. Cells were incubated with 50 μg/mL concanavalin A (Invitrogen) for 5 minutes at room temperature to stain cell membrane and with 1 μg/mL DRAQ5TM (Biostatus, Leicestershire, United Kingdom) for 5 minutes at room temperature to stain nucleus. Finally, slides were rinsed twice with PBS and covered with glass for confocal microscopy observation. Green fluorescence of fluorescein isothiocyanate-CD20, red fluorescence of concanavalin A, and blue fluorescence of DRAQ5 were analyzed, and merged images were produced using Zeiss 510 META Laser Scanning Confocal Imaging Systems and LSM Image software (Carl Zeiss, Thornwood, N.Y.).

[7] = tested on: CD20; test: Immunoblot of total CD20 protein; format: cell-based, human; conditions: 48 and 72 hours, relative to vehicle control
Procedure: Immunoblot assays were performed with the multiple antigen detection immunoblotting method as described previously.^23 Whole-cell lysates were prepared and stored in −80° C. Protein concentration was quantified by the bicinchoninic acid method (Pierce Chemical, Rockford, Ill.). Protein samples (50 μg) were separated by sodium dodecyl sulfate-polyacrylamide gel electrophoresis (12%) and transferred to 0.2-μm nitrocellulose membranes (Whatman Schleicher & Schuell, Keene, N.H.) and incubated with goat antihuman CD20 (Santa Cruz Biotechnology, Santa Cruz, Calif.) or rabbit antiactin (Cell Signaling Technology, Danvers, Mass.) antibodies. Horseradish peroxidase-conjugated goat anti-rabbit IgG (Bio-Rad, Hercules, Calif.) was used as secondary antibody Immune complexes were detected using chemiluminescent substrate (SuperSignal; Pierce Chemical).

[8] = tested on: NK cells; test: CD56 and CD16 surface expression on purified NK cells (flow); format: cell-based, human; conditions: lenalidomide 72 hours
Procedure: FIG. 4B: Lenalidomide treatment increases percentage of CD56+/[…] cells. Negatively selected NK cells were incubated with Lenalidomide (0.5 μM) or vehicle control. CD56 and CD16 surface expression was analyzed by flow after 72 h of treatment. The graphs show, respectively, percentage change CD56+/CD16+ (left panel, N=12, p<0.01) and CD56−/CD16+ (right panel, N=12, p<0.005) double positive cells.
For ADCC experiments, CD56^+ and CD19^+ cells were negatively purified from whole blood obtained from either healthy volunteers or CLL subjects by magnetic-activated cell sorting according to the manufacturer's recommendations (MiniMACS; Miltenyi Biotec, Auburn, Calif.). The purity of enriched populations was always greater than 95% of the total yield as detected by CD19 and CD3 staining.

[9] = tested on: Raji cell line xenograft; conditions: Raji xenograft mouse, lenalidomide alone; cited from earlier work
[10] = tested on: B-cell lymphoma cell lines; conditions: cited from earlier work

What does the source list for `Nc1cccc2c1CN(C1CCC(=O)NC1=O)C2=O` (stereo not drawn) [lenalidomide]?
apoptosis in vitro [1]: no apoptosis; CD23 activation marker level on CLL cells [2]: increased levels; CD38 activation marker level on CLL cells [3]: increased levels; CD5 expression on CLL cells [4]: no changes; CD20 mRNA transcription [5]: very modest increase; CD20 internalization in CLL cells [6]: actively internalized; total level of CD20 protein [7]: no variation; percentage of CDC16+/CD56− cells ([8]; N=12, P<0.005 (vehicle 35% ±13%)): 20% ±11%; percentage of CD16+/CD56+ cells ([8]; N=12, P<0.01 (vehicle 18% ±10%)): 31% ±14%; NK cell expansion [9]: induced NK cell expansion; tumor growth [9]: failed to inhibit tumor growth; CD20 surface antigen expression [10]: without affecting
